Common to all, as to assay: growth of human tumour cells (NCI), 48 h
Experiment [1] relates to A549 NSCLC.
Experiment [2] deals with HCC-2998 colon.
Experiment [3] concerns HCT-116 colon.
Experiment [4] deals with HS 578T breast.
For experiment [5], the system named is MALME-3M melanoma.
Experiment [6] concerns MDA-MB-231 breast.
The test system of experiment [7] is MDA-MB-435.
The subject of experiment [8] is OVCAR-3 ovarian.
The subject of experiment [9] is RPMI-8226 leukemia.
Experiment [10] concerns SK-OV-3 ovarian.

Each structure is given as a SMILES string.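 All cell lines were grown in 96-well plates and treated with compound for 48 hours. The concentration for 50% growth inhibition is given as GI50. TGI denotes the concentration required for complete inhibition of growth.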

Take `Nc1ncnc2c1nc(Cl)n2C1OC2COP(=O)(O)OC2C1O` (configuration not stated): the TGI in [1] is greater than 300 µM; in [2], greater than 300 µM; in experiment [3] it was greater than 300 µM; in experiment [4] it was greater than 280 µM; in [5] it was greater than 300 µM; in experiment [6], greater than 300 µM. Also, the TGI in experiment [7] is greater than 255 µM; in experiment [8] it was greater than 300 µM; in experiment [9], greater than 300 µM; in experiment [10], greater than 300 µM.
Turning to `COc1cc2c3c(n(CCCN)c(=O)c2cc1OC)-c1cc2c(cc1/C3=C\CCN)OCO2`, the GI50 is 3.19 µM in experiment [1]; 0.382 µM in [2]; 0.989 µM in experiment [3]; 11 µM in experiment [4]; 1.1 µM in experiment [5]; 2.5 µM in experiment [6]. For the same compound, the GI50 was 2.01 µM in experiment [9] and 6 µM in experiment [10]. For the same compound, the TGI in experiment [1] is greater than 30.3 µM; in [2], 1.77 µM; in experiment [4], 55.7 µM; in [5] it was 4.26 µM; in experiment [6] it was 11.2 µM; in experiment [7], greater than 36 µM. Also, the TGI in [8] is greater than 23.5 µM; in [9] it was greater than 40.3 µM; in [10] it was 44.2 µM.
On to `O=C1CCCCCCCC/C=C\CC(c2ccco2)O1` (configuration not stated), for which the GI50 in experiment [1] was 46 µM; in experiment [2], greater than 100 µM; in experiment [3], 15.1 µM; in experiment [4], 32.4 µM; in experiment [5], 26.3 µM; in [6], 14.6 µM. Further, the GI50 in [7] was 51.5 µM; in experiment [8], 32.2 µM; in experiment [9] it was 43.2 µM; in experiment [10], 32.7 µM. In addition, the TGI in experiment [1] was greater than 100 µM; in experiment [2], greater than 100 µM; in [3], 29.5 µM; in experiment [4], greater than 100 µM; in [5], greater than 100 µM; in [6], 41.9 µM. For the same compound, the TGI in experiment [7], in [8], in experiment [9] and in [10] was greater than 100 µM in each case.
For the compound `CC(=O)[C@@]1(O)CC[C@H]2[C@@H]3C[C@H](C)C4=CC(=O)CC[C@]4(C)[C@H]3[C@@H](O)C[C@@]21C`, the TGI in [1], in experiment [2], in experiment [3], in experiment [4], in [5] and in experiment [6] was greater than 100 µM in each case. For the same compound, the TGI in experiment [7], in experiment [8], in experiment [9] and in [10] was greater than 100 µM in each case.
As for `CC[C@H](Nc1nc(NCc2cnc(C)cc2C)c2ncn(C(C)C)c2n1)[C@@H](C)O`, the GI50 was 0.353 µM in experiment [1]; 0.291 µM in [2]; 0.314 µM in experiment [3]; 0.281 µM in [4]; 1.18 µM in [5]; 0.313 µM in experiment [6]. Besides, the GI50 in experiment [7] is 0.362 µM; in [8], 0.355 µM; in experiment [9] it was 0.308 µM; in [10], 3.89 µM. The TGI in experiment [1] is greater than 100 µM; in [2] it was 2 µM; in experiment [3], greater than 100 µM; in experiment [4], 0.956 µM; in [5], 4.22 µM; in experiment [6], greater than 100 µM. Moreover, the TGI is 10.8 µM in experiment [7], greater than 24.1 µM in experiment [8], 14.2 µM in [9] and greater than 100 µM in [10].
Turning to `O=c1c2ccccc2n(C[C@H]2CO2)c2ccccc12`, the GI50 in experiment [1] was 2.45 µM; in [2], 1.51 µM; in experiment [3], 1.12 µM; in experiment [4], 2.05 µM; in experiment [5] it was 1.65 µM; in experiment [6], 2.07 µM. In addition, the GI50 in experiment [7] is 1.61 µM; in experiment [8], 2.31 µM; in experiment [9] it was 1.94 µM; in [10], 2.64 µM. Moreover, the TGI in experiment [1] was found to be 7.28 µM; in [2], 3.44 µM; in experiment [3] it was 8.78 µM; in [4], 5.89 µM; in experiment [5], 3.19 µM; in experiment [6], 5.24 µM. Also, the TGI in [7] was 3.24 µM; in experiment [8], 7.19 µM; in experiment [9], 6.55 µM; in experiment [10], 7.33 µM.
On to `CCOc1ccc(-c2nonc2NC(=O)c2cccc(C)c2)cc1OCC`, for which the GI50 was greater than 100 µM in experiment [1]; greater than 100 µM in experiment [2]; 35.7 µM in experiment [3]; greater than 100 µM in experiment [4]; greater than 100 µM in [5]; 19.5 µM in [6]. The GI50 in experiment [7], in [8], in experiment [9] and in [10] was greater than 100 µM in each case. For the same compound, the TGI in experiment [1] is greater than 100 µM; in [2] it was greater than 100 µM; in experiment [3] it was greater than 100 µM; in experiment [4], greater than 100 µM; in experiment [5], greater than 100 µM; in experiment [6], 62.5 µM. Moreover, the TGI in [7], in experiment [8], in [9] and in [10] was greater than 100 µM throughout.
On to `CC(C)(O)CS(=O)(=O)Nc1ccc2c(c1)CCN(C(=O)COc1cccnc1)C2`, for which the GI50 was greater than 100 µM in experiment [1]; greater than 26.5 µM in experiment [2]; 0.0311 µM in experiment [3]; greater than 100 µM in [4]; greater than 100 µM in [5]; greater than 100 µM in experiment [6]. For the same compound, the GI50 in experiment [7] is 0.518 µM; in [8], greater than 100 µM; in [9], 0.799 µM; in experiment [10], greater than 100 µM. Further, the TGI in experiment [1], in experiment [2], in experiment [3], in experiment [4], in [5] and in experiment [6] was greater than 100 µM throughout. For the same compound, the TGI in [7], in experiment [8], in experiment [9] and in experiment [10] was greater than 100 µM in each case.

Source of the values: PubChem BioAssay (NCI).
